This is an account of results in patent US12624024B2, “EP2 antagonist compounds” (Reservoir Neuroscience, Inc., priority 2021, dated 2026).

pIC50: −log10 of the molar value. A value given as a limit tells only on which side of the number the result lay.

In this experiment the target is T1, EP2 receptor (Homo sapiens, UniProt P43116).
T1 construct: expressed in transfected cells; host or cells: CHO-K1 cells (ATCC), transient transfection with FuGENE 6
T1 sequence (P43116 whole entry): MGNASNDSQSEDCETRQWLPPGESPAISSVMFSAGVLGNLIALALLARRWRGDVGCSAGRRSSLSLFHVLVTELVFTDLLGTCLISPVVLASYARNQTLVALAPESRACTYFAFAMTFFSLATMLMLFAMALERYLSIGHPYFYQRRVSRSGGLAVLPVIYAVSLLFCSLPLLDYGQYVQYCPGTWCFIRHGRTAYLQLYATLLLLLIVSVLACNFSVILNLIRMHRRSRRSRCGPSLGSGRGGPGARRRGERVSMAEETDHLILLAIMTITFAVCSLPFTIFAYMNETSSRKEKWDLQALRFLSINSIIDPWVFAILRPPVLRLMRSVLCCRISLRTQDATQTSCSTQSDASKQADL
The experiment in a line: EP2 Potency Assay (cAMP TR-FRET, CHO-K1 cells transfected with EP2 receptor, PGE2 at EC80). As to conditions: CHO-K1 cells expressing EP2, prostaglandin E2 at EC80, read-out: EP2 Potency (IC50 category). Type of experiment: cell-based. In a few lines: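 CHO-K1 cells transiently transfected with EP2 and seeded 24 h after transfection. IC50 from curve fit of percent inhibition versus concentration.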
A general note: Time-resolved FRET reads energy transfer from a long-lived donor to a nearby acceptor.
With `NCc1ncc(CN2CCOc3c(Cl)cc(-n4ccc5cc(F)ccc54)cc3C2)cn1` [Compound 139, 1-(5-{[9-chloro-7-(5-fluoroindol-1-yl)-3,5-dihydro-2H-1,4-benzoxazepin-4-yl]methyl}pyrimidin-2-yl)methanamine], the pIC50 (usually the negative decadic logarithm of the IC50, by convention in mol/L) is 6.30 to 7.00. As to `CC(C)(C)OC(=O)NCc1ncc(CN2CCOc3c(Cl)cc(-n4ccc5cc(F)ccc54)cc3C2)cn1` [Compound 140, tert-butyl N-[(5-{[9-chloro-7-(5-fluoroindol-1-yl)-3,5-dihydro-2H-1,4-benzoxazepin-4-yl]methyl}pyrimidin-2-yl)methyl]carbamate], the pIC50 was 5.30 to 6.00. With `OCc1ncc(CN2CCOc3c(Cl)cc(-n4ccc5cc(F)ccc54)cc3C2)cn1` [Compound 141, (5-{[9-chloro-7-(5-fluoroindol-1-yl)-3,5-dihydro-2H-1,4-benzoxazepin-4-yl]methyl}pyrimidin-2-yl)methanol], the pIC50 is 6.00 to 6.30. As to `NC(=O)c1ncc(CN2CCOc3c(Cl)cc(-n4ccc5cc(F)ccc54)cc3C2)cn1` [Compound 143, 5-{[9-chloro-7-(5-fluoroindol-1-yl)-3,5-dihydro-2H-1,4-benzoxazepin-4-yl]methyl}pyrimidine-2-carboxamide], the pIC50 is 5.30 to 6.00. For the compound `COC(=O)c1ncc(CN2CCOc3c(Cl)cc(-n4ccc5cc(F)ccc54)cc3C2)cn1` [Compound 145, Methyl 5-{[9-chloro-7-(5-fluoroindol-1-yl)-3,5-dihydro-2H-1,4-benzoxazepin-4-yl]methyl}pyrimidine-2-carboxylate], the pIC50 was more than 7.00.

As to `CNc1ncc(CN2CCOc3c(Cl)cc(-n4ccc5cc(F)ccc54)cc3C2)cn1` [Compound 147], the pIC50 is 6.30 to 7.00. Turning to `CN(C)c1ncc(CN2CCOc3c(Cl)cc(-n4ccc5cc(F)ccc54)cc3C2)cn1` [Compound 148], the pIC50 was 6.00 to 6.30. As for `Fc1ccc2c(ccn2-c2cc(Cl)c3c(c2)CN(Cc2cnc(NC4COC4)nc2)CCO3)c1` [Compound 149, 5-{[9-chloro-7-(5-fluoroindol-1-yl)-3,5-dihydro-2H-1,4-benzoxazepin-4-yl]methyl}-N-(oxetan-3-yl)pyrimidin-2-amine], the pIC50 is 6.30 to 7.00. Then `O=c1ncc(CN2CCOc3c(Cl)cc(-n4ccc5cc(F)ccc54)cc3C2)c(F)[nH]1` [Compound 155, 5-{[9-chloro-7-(5-fluoroindol-1-yl)-3,5-dihydro-2H-1,4-benzoxazepin-4-yl]methyl}-4-fluoro-3H-pyrimidin-2-one], with 5.30 to 6.00; and `O=c1ncc(CN2CCOc3c(Cl)cc(-n4ccc5cc(F)ccc54)cc3C2)c(O)[nH]1` [Compound 157, 5-{[9-chloro-7-(5-fluoroindol-1-yl)-3,5-dihydro-2H-1,4-benzoxazepin-4-yl]methyl}-4-hydroxy-3H-pyrimidin-2-one], with 5.30 to 6.00; and `Oc1ncc(CN2CCOc3c(Cl)cc(-n4ccc5cc(F)ccc54)cc3C2)c(Cl)n1` [Compound 158, 4-chloro-5-{[9-chloro-7-(5-fluoroindol-1-yl)-3,5-dihydro-2H-1,4-benzoxazepin-4-yl]methyl}-3H-pyrimidin-2-one], with 5.30 to 6.00. As to `COc1nccc(CN2CCOc3c(Cl)cc(-n4ccc5cc(F)ccc54)cc3C2)n1` [Compound 161], the pIC50 is 6.00 to 6.30. Consider `Fc1ccc2c(ccn2-c2cc(Cl)c3c(c2)CN(Cc2ccnc(NC4COC4)n2)CCO3)c1` [Compound 162, 4-{[9-chloro-7-(5-fluoroindol-1-yl)-3,5-dihydro-2H-1,4-benzoxazepin-4-yl]methyl}-N-(oxetan-3-yl)pyrimidin-2-amine], for which the pIC50 is 5.30 to 6.00.

As for `Nc1nccc(CN2CCOc3c(Cl)cc(-n4ccc5cc(F)ccc54)cc3C2)n1` [Compound 163, 4-{[9-chloro-7-(5-fluoroindol-1-yl)-3,5-dihydro-2H-1,4-benzoxazepin-4-yl]methyl}pyrimidin-2-amine], the pIC50 was 5.30 to 6.00. In the case of `O=c1nccc(CN2CCOc3c(Cl)cc(-n4ccc5cc(F)ccc54)cc3C2)[nH]1` [Compound 164], the negative logarithm of the IC50 (pIC50) is less than 5.30. Then `Fc1ccc2c(ccn2-c2cc(Cl)c3c(c2)CN(Cc2cccnn2)CCO3)c1` [Compound 166], with 6.00 to 6.30; and `Nc1ccc(CN2CCOc3c(Cl)cc(-n4ccc5cc(F)ccc54)cc3C2)nn1` [Compound 167], with 5.30 to 6.00. In the case of `CC(C)(C)OC(=O)Nc1ccc(CN2CCOc3c(Cl)cc(-n4ccc5cc(F)ccc54)cc3C2)nn1` [Compound 168], the pIC50 is less than 5.30. Turning to `CC(C)(C)OC(=O)Nc1cnc(CN2CCOc3c(Cl)cc(-n4ccc5cc(F)ccc54)cc3C2)cn1` [Compound 171], the pIC50 is less than 5.30. For `COc1cnc(CN2CCOc3c(Cl)cc(-n4ccc5cc(F)ccc54)cc3C2)cn1` [Compound 172] the value was 5.30 to 6.00; for `Fc1ccc2c(ccn2-c2cc(Cl)c3c(c2)CN(Cc2cnc(Cl)cn2)CCO3)c1` [Compound 173], 5.30 to 6.00. In the case of `O=c1ccc(CN2CCOc3c(Cl)cc(-n4ccc5cc(F)ccc54)cc3C2)c[nH]1` [Compound 175], the pIC50 was 6.30 to 7.00. As for `O=c1cc[nH]cc1CN1CCOc2c(Cl)cc(-n3ccc4cc(F)ccc43)cc2C1` [Compound 176], the pIC50 was 5.30 to 6.00. As for `CC(C)(C)OC(=O)Nc1cc(CN2CCOc3c(Cl)cc(-n4ccc5cc(F)ccc54)cc3C2)ccn1` [Compound 178], the pIC50 is less than 5.30. Then `Nc1cc(CN2CCOc3c(Cl)cc(-n4ccc5cc(F)ccc54)cc3C2)ccn1` [Compound 179, 4-{[9-chloro-7-(5-fluoroindol-1-yl)-3,5-dihydro-2H-1,4-benzoxazepin-4-yl]methyl}pyridin-2-amine], with 5.30 to 6.00; and `CNc1cc(CN2CCOc3c(Cl)cc(-n4ccc5cc(F)ccc54)cc3C2)ccn1` [Compound 180, 4-{[9-chloro-7-(5-fluoroindol-1-yl)-3,5-dihydro-2H-1,4-benzoxazepin-4-yl]methyl}-N-methylpyridin-2-amine], with 5.30 to 6.00; and `CN(C)c1cc(CN2CCOc3c(Cl)cc(-n4ccc5cc(F)ccc54)cc3C2)ccn1` [Compound 181, 4-{[9-chloro-7-(5-fluoroindol-1-yl)-3,5-dihydro-2H-1,4-benzoxazepin-4-yl]methyl}-N,N-dimethylpyridin-2-amine], with 5.30 to 6.00. Turning to `Fc1ccc2c(ccn2-c2cc(Cl)c3c(c2)CN(Cc2ccnc(NC4COC4)c2)CCO3)c1` [Compound 182, 4-{[9-chloro-7-(5-fluoroindol-1-yl)-3,5-dihydro-2H-1,4-benzoxazepin-4-yl]methyl}-N-(oxetan-3-yl)pyridin-2-amine], the pIC50 is 5.30 to 6.00. In the case of `OCc1cc(CN2CCOc3c(Cl)cc(-n4ccc5cc(F)ccc54)cc3C2)ccn1` [Compound 183], the pIC50 is 6.30 to 7.00. On to `NCc1cc(CN2CCOc3c(Cl)cc(-n4ccc5cc(F)ccc54)cc3C2)ccn1` [Compound 184, 1-(4-{[9-chloro-7-(5-fluoroindol-1-yl)-3,5-dihydro-2H-1,4-benzoxazepin-4-yl]methyl}pyridin-2-yl)methanamine], for which the pIC50 is 5.30 to 6.00. Turning to `COC(=O)c1cc(CN2CCOc3c(Cl)cc(-n4ccc5cc(F)ccc54)cc3C2)ccn1` [Compound 186], the pIC50 was 6.30 to 7.00.

For the compound `Fc1ccc2c(ccn2-c2cc(Cl)c3c(c2)CN(Cc2ccnc(C4CNC4)c2)CCO3)c1` [Compound 188, 4-{[2-(azetidin-3-yl)pyridin-4-yl]methyl}-9-chloro-7-(5-fluoroindol-1-yl)-3,5-dihydro-2H-1,4-benzoxazepine; trifluoroacetic acid], the pIC50 is less than 5.30. For `Fc1ccc2c(ccn2-c2cc(Cl)c3c(c2)CN(Cc2ccnc(Cl)c2F)CCO3)c1` [Compound 190] the value was 5.30 to 6.00; for `Cc1c(CN2CCOc3c(Cl)cc(-n4ccc5cc(F)ccc54)cc3C2)ccnc1Cl` [Compound 191], 5.30 to 6.00; for `Fc1ccc2c(ccn2-c2cc(Cl)c3c(c2)CN(Cc2ccnc(Cl)c2C(F)(F)F)CCO3)c1` [Compound 192], 6.30 to 7.00.

Consider `O=c1[nH]ccc(CN2CCOc3c(Cl)cc(-n4ccc5cc(F)ccc54)cc3C2)c1C(F)(F)F` [Compound 195], for which the pIC50 is less than 5.30. Then `COc1cc(CN2CCOc3c(Cl)cc(-n4ccc5cc(F)ccc54)cc3C2)cc(OC)n1` [Compound 197], with less than 5.30; and `O=C1NN=CC1CN1CCOc2c(Cl)cc(-n3ccc4cc(F)ccc43)cc2C1` (centres unmarked) [Compound 199], with 5.30 to 6.00; and `Fc1ccc2c(ccn2-c2cc(Cl)c3c(c2)CN(Cc2cncnc2)C2(CC2)CO3)c1` [Compound 218], with less than 5.30. With `N#Cc1cccc(CN2Cc3cc(-n4ccc5cc(F)ccc54)cc(Cl)c3OCC23CC3)c1` [Compound 220], the pIC50 was less than 5.30. In the case of `COc1cc(CN2CCOc3c(Cl)cc(-n4ccc5cc(F)ccc54)c(C)c3C2)ccn1` [Compound 221], the pIC50 is less than 5.30. Take `Fc1ccc2c(ccn2-c2cc(Cl)c3c(c2)CN(Cc2cncnc2)CC3)c1` [Compound 222]: the pIC50 is less than 5.30.

As for `COc1ncccc1CN1CCc2c(Cl)cc(-n3ccc4cc(F)ccc43)cc2C1` [Compound 223], the pIC50 was less than 5.30. For `COc1cc(CN2CCOc3c(Cl)cc(-n4ccc5cc(F)ccc54)cc32)ccn1` [Compound 224], the pIC50 is less than 5.30. Then `[2H]C1([2H])c2cc(-n3ccc4cc(F)ccc43)cc(Cl)c2OC([2H])([2H])C([2H])([2H])N1Cc1cc[nH]c(=O)c1` [Compound 225], with 6.30 to 7.00.

Consider `[2H]C1([2H])c2cc(-n3ccc4cc(F)ccc43)cc(Cl)c2OCCN1Cc1cc[nH]c(=O)c1` [Compound 226], for which the pIC50 is 6.30 to 7.00. For `[2H]C1([2H])Oc2c(Cl)cc(-n3ccc4cc(F)ccc43)cc2CN(Cc2cc[nH]c(=O)c2)C1([2H])[2H]` [Compound 227] the value was more than 7.00; for `CC(c1cc[nH]c(=O)c1)N1CCOc2c(Cl)cc(-n3ccc4cc(F)ccc43)cc2C1` (centres unmarked) [Compound 228], less than 5.30; for `O=c1cc(CN2Cc3cc(-n4ccc5cc(F)ccc54)cc(Cl)c3OCC23COC3)cc[nH]1` [Compound 229], less than 5.30.

For the compound `O=c1cc(CN2Cc3cc(-n4ccc5cc(F)ccc54)cc(Cl)c3OCC23CC3)cc[nH]1` [Compound 230], the pIC50 is less than 5.30.
